Legend:
[1] = test system: Sauromatum guttatum appendix; experiment: Modulation of heat generated by salicylic acid (SA) in appendix sections; conditions: appendix sections in aqueous SA with or without peptide
Experimental: (§1) In one example, using Sauromatum guttatum as the experimental module, on the day of inflorescence-opening, the Sauromatum appendix (a 20-40 cm-long, slender organ) becomes warm, reaching a 32° C. temperature (Skubatz et al., 1991, Plant Physiol. 95:1084-1088). The heat generated by the appendix is generated by the mitochondria. This mitochondrial activity can be triggered by the addition of phenolic compounds, including but not limited to, salicylic acid, aspirin, and 2,6-dihydroxybenzoic acid. Test agents can be applied to the plant and the plant's temperature may be monitored in vivo.
FIG. 5 illustrates modulation of heat generated by salicylic acid (SA) in the presence of human opioid peptides (β-Endorphin, SEQ ID NO: 19 and Nueuropeptide AF, SEQ ID NO: 44) and, the Alzheimer's peptide, Aβ 1-42, SEQ ID NO: 49, and, a plant virulent bacterial pathogen (Pst DC3000). One day before heat-production, sections of the appendix were placed in different aqueous solutions containing salicylic acid (SA) with or without a peptide or with the bacterial plant pathogen, Pseudomonas syringae pv. Tomato, DC3000. Sections from the appendix were placed in distilled water that was not generated any heat is the control (water). Temperature was recorded with thermocouples attached to the sections every 5 min.

[2] = test system: Sauromatum guttatum appendix; experiment: Modulation of heat generated by aspirin (ASA) in appendix sections; conditions: appendix sections in aqueous ASA with or without peptide
Experimental: as §1
One day before heat-production, sections of the appendix were placed in different aqueous solutions containing ASA with or without an opioid peptide. [Leu]-Enkephalin, SEQ ID NO: 15; Human β-Endorphin; SEQ ID NO: 19; Dynorphin A, SEQ ID NO: 21; Endomorphin 2, SEQ ID NO: 24; Neuropeptide AF, SEQ ID NO: 44; β-human-Casomorphin, SEQ ID NO: 47; Alzheimer's peptide, SEQ ID NO: 48. […] Temperature was recorded with thermocouples attached to the section every 5 min.

[3] = test system: Pseudomonas syringae pv tomato, DC3000; experiment: Systemic resistance of plants to a virulent bacterial pathogen; type: in vivo, Arabidopsis ecotype Columbia (Col-0); conditions: 20 μl salicylic acid at 1 mM and 20 μl SEQ ID NO: 15 applied together to the leaves
Experimental: Seeds of Arabidopsis ecotype Columbia (Col-0) were planted in potting soil. Plants were cultivated in a growth chamber with 10-h d (200 μmol m^−2 s^−1 at 22° C.) and 14-h night (18° C.) cycles and 80% RH. Once a week plants were supplied with water and modified one-half strength Hoagland nutrient solution: 2 mM KNO 5 mM Ca(NO3)2 and trace elements, pH 7.
A virulent plant pathogen, Pst Pseudomonas syringae pv tomato, DC3000 was grown at 28° C. on King's medium B containing 40 mg/L tetracycline. Plants were inoculated with 1×10^7 cfu/ml of the pathogen in 0.01% Silwet L77 (v/v) (a surfactant) and distilled water 5 weeks after sowing. The bacterial suspension or a control solution (0.01% Silwet L77 in water) was then sprayed on the plant once.
Disease symptoms in Arabidopsis are water-soaked, spreading lesions, sometimes surrounded by chlorotic margin that eventually lead to yield loss and plant death.
To test the efficacy of SEQ ID NO: 15, some healthy and some disease plants were sprayed with salicylic acid in 0.01%. Silwet L77; some healthy and some disease plants were sprayed with SEQ ID NO: 15 in 0.01%. Silwet L77, and some healthy and some disease plants were sprayed with salicylic acid in combination with SEQ ID NO: 15 in 0.01%. Silwet L77. A control group of some healthy and some disease plants were sprayed with water in 0.01%. Silwet L77. […]

[4] = test system: Sauromatum guttatum appendix; experiment: Modulation of heat generated by 2,6-dihydroxybenzoic acid (2,6-DHBA) in appendix sections; peptide alone in a second experiment
Experimental: as §1
FIG. 6 illustrates modulation of heat generated by 2,6-dihydroxybenzoic acid in the presence of the Alzheimer's peptide, A.β.1-42, SEQ ID NO: 49 and a plant gene derived sequence in the Sauromatum guttatum appendix. One day before heat-production, sections of the appendix were placed in different solutions containing 2,6-dihydroxybenzoic acid (2,6-DHBA) with or without SEQ ID NO: 2 (FLPSEFGVDVDR) and SEQ ID NO: 49. Heat-production was monitored with thermocouples attached to the sections. A section placed in distilled water that was not generated any heat is the control (water). […] The temperature was recorded every 5 min.

[5] = test system: post-operative pain in rats; experiment: Hind paw withdrawal threshold (von Frey filaments) after surgery, second study; type: in vivo, rat
Experimental: In a second independent study the rat hind paw withdrawal sensitivity was again evaluated after 3 h and 3 day post-surgery when the rats had received SEQ ID NO: 1 at three different concentrations: 1, 15 and 50 mg/kg. The dosing route was subdermal injection adjacent to the wound site. The rats received one dose 3 hours after the surgery and on Day 3 post-surgery, group 3 was dosed again as described in the Table IV. Pain measurements were taken 15-20 min after application of the drug. Baseline pain behavior was measured as follows: Withdrawal responses to mechanical stimulation were determined using von Frey filaments applied from underneath the cage through openings (12×12 mm in the plastic mesh floor to an area adjacent to the intended incision. Each von Frey filament (Target force of 0.008 g to 300 g) was applied once starting with 0.008 g filament and continuing until a withdrawal response occurred or 300 g force was reached. The median force producing a response, determined from three tests given over a 10-min period was considered the withdrawal threshold.
In the saline treated animals, the control, 3-hour post-surgery were 25.1, 4.4 and 12.7 g, indicating significant hyperalgesic response immediately after surgery which subsided by Day-3. […] The withdrawal response in the 50 mg/kg SEQ ID NO: 1 administered on Day-1 was 9.9 g compared to the 4.4 g for the saline group at the same time-point, indicating a 125% effect. The data expressed as mean±SE, were analyzed using ANOVA followed by Tukey-HSD Multiple Comparison Test. Statistical significance was p<0.05.
On Day-3, when these animals were administered with […] of SEQ ID NO: 1 subdermally, the withdrawal response was at 21.3 g, compared to the withdrawal response of saline group at 12.7 g, constituting an increase of 68%. The data expressed as mean±SE, were analyzed using ANOVA followed by Tukey-HSD Multiple Comparison Test. Statistical significance was p<0.05.

[6] = test system: post-operative pain in rats; experiment: Von Frey testing for mechanical allodynia, post-operative pain (Brennan model), first study; type: in vivo, rat
From the text: A total of forty (40) male Sprague Dawley rats (Harlan Sprague Dawley Inc., Indianapolis, Ind., USA) were used in the study. The rats are specific pathogen free and approximately 250 grams upon arrival. The rats were housed in the vivarium in clear polycarbonate plastic cages (48×27×20 cm); 2 rats per cage until a few days prior to surgery at which point they were singularly housed for the remainder of the study procedures. The bedding material is irradiated corn-cob bedding (Bed-O-Cob, The Andersons, Maumee, Ohio, USA) that was changed weekly. The rats were acclimated for two weeks prior to the commencement of the experimental procedures. The room in which the rats were housed throughout the study was supplied with HEPA filtered air at the rate of 10-15 air changes per hour. The temperature was maintained at 18-26° C. with a relative humidity of 30-70%. Illumination is approximately 300 lumens/m^2 at 1 m above floor level on a 12-hour light/dark cycle. […]
On days 1 and 3 post-surgery, the rats underwent Von Frey testing for mechanical allodynia. Tactile sensitivity (i.e. mechanical allodynia) was measured using calibrated filaments touched to the plantar surface of the affected limb. […]
FIG. 1. Data were analyzed using a one-way ANOVA followed by Newman-Keuls' Multiple Comparison. […]

[7] = test system: Arabidopsis thaliana plants; experiment: Flowering of treated plants; type: in vivo; conditions: 10 μm in 0.01% Silwet L-77
[8] = test system: chronic pain; experiment: Topical administration to an adult subject with chronic pain, scaled score 1 to 10; type: in vivo, human
Experimental: An adult subject suffering from chronic pain as a result from of multiple fractures to both tibia and fibula in both legs and severe traumatic soft tissue damage was topically administered a composition containing a polypeptide of SEQ ID NO: 1 at regions experiencing pain (mostly knees and ankles). The pharmaceutical formulation administered comprised of 5 μM of SEQ ID NO: 1 in 0.01% Silwet L-77. Relief was noticed within 15 min. after administration of a single dose of about 5 μg/10 cm2 of SEQ ID NO: 1. […] A scaled score of 1 to 10 was used to evaluate treatment efficacy where a score of 10 represented a patient with sever pain discomfort and complete inability to walk. A scaled score of 1 represented a patient experiencing no pain and able to freely walk or move the legs. Prior to treatment, the patient scored an 8-9 representing chronic pain and difficulties in walking long distance. After the treatment, the patient scored a 2-3 representing a significant decrease in pain. Treatment efficacy lasted for about 10 days.

## AGEGLNSQFWSLAAPQRF [SEQ ID NO: 44]
[1]
  modulation of heat generated by salicylic acid (SA) (FIG. 5): modulate thermogenicity in plants
[2]
  modulation of heat generated by aspirin (ASA) (FIG. 4): can modulate thermogenicity in plants

## YGGFL [SEQ ID NO: 15]
[3]
  systemic resistance to the virulent bacteria: enough to trigger systemic resistance
[2]
  modulation of heat generated by aspirin (ASA) (FIG. 4): can modulate thermogenicity in plants

## YPFF [SEQ ID NO: 24]
[2]
  modulation of heat generated by aspirin (ASA) (FIG. 4): can modulate thermogenicity in plants

## YGGFMTSEKSQTPLVTLFKNAIIKNAYKKGE [SEQ ID NO: 19]
[1]
  modulation of heat generated by salicylic acid (SA) (FIG. 5): modulate thermogenicity in plants
[2]
  modulation of heat generated by aspirin (ASA) (FIG. 4): can modulate thermogenicity in plants

## O=C(O)c1ccccc1O [salicylic acid]
[3]
  systemic resistance to the virulent bacteria: enough to trigger systemic resistance

## YPFVEPIP [SEQ ID NO: 47]
[2]
  modulation of heat generated by aspirin (ASA) (FIG. 4): can modulate thermogenicity in plants

## FLPSEFGVDVDR [SEQ ID NO: 2]
[4]; appendix sections in 2,6-DHBA with or without peptide
  modulation of heat generated by 2,6-dihydroxybenzoic acid (FIG. 6): modulate thermogenicity in plants
[4]; second experiment, up to 50 μM, data not shown
  heat generation by the peptide: did not generate heat

## FLPS (Description of Unknown: Arabidopsis thaliana or Homo sapiens) [SEQ ID NO: 1]
[5]; 1 mg/kg on day 1, 3-hour post surgery measurements
  increase in the pain threshold: 39%
[5]; 50 mg/kg subdermal, Day-1, 3 h after surgery
  effect compared to the saline group at the same time-point: 125%
[5]; 50 mg/kg subdermal, Day-1, 3 h after surgery, saline group 4.4 g
  withdrawal response: 9.9 g
[5]; Day 3, group which did not receive any further dosing
  increase in response time compared to the saline group: 31%
[5]; Day-3, 15.25 mg/kg subdermally
  increase of withdrawal response compared to saline group: 68%
[5]; Day-3, 15.25 mg/kg subdermally (animals given 1 mg/kg on day 1), saline group 12.7 g
  withdrawal response: 21.3 g
[6]; rats 3 days after surgery, 150 μg topical or subdermal, p<0.05
  pain (mechanical allodynia, paw withdrawal threshold, FIG. 1): significantly reduce pain
[6]; rats after surgery, treated
  appearance of the rats: relaxed and with less anxiety
[7]
  flowering: induces early flowering and abundance of flowers and pods
[8]; scale 1 (no pain) to 10 (severe pain), prior to treatment 8-9
  scaled pain score after the treatment: 2-3
[8]; topical, single dose
  duration of treatment efficacy: about 10 days
[8]; topical, single dose of about 5 μg/10 cm2
  duration of relief: more than a week
[8]; topical, single dose of about 5 μg/10 cm2, 5 μM in 0.01% Silwet L-77
  time until relief was noticed: ≤ 15 min

## YGGFLRRIRPKLKWDNQ [SEQ ID NO: 21]
[2]
  modulation of heat generated by aspirin (ASA) (FIG. 4): can modulate thermogenicity in plants

— patent publication US8492159B2, “Methods and compositions for treating conditions” (priority 2004, dated 2013)
